Data reported in article PMC11984905, “Chiral Switch of Gadopiclenol: New Standards in MRI Probes” (Advanced Science, 2025).
“And” between values parts separate entries of the source, which are not always exact repeats. Identical values can stand only once. Marks after values point to notes of the source that are not given here.

Columns and labels:
[1] = 1H NMRD profiles and 17O NMR relaxometry in water; type: physicochemical; conditions: for ^298K r 1 [1.5 T] / r 1 ^310K [1.5 T]: water; for ER / q: fixed in the fitting procedure; for q: number of coordinated water molecules; for τ M1: residence time of coordinated water 1, 298 K; for τ M2: residence time of coordinated water 2, 298 K; for ^SS q: second-sphere water molecules at 3.6 Å; for ^298K r 1 [1.5 T] / ^SS q: 298 K
Description: (§1) The magnetic‐field dependence of the longitudinal relaxation rate of water protons (^1H NMRD) were measured in aqueous solution by using a variable field relaxometer equipped with an HTS‐110 3T Metrology Cryogen‐free Superconducting Magnet (Mede, Italy), operating in the overall range of proton Larmor frequencies of 20–120 MHz (0.47–3.00 T). The measurements were performed using the standard inversion recovery sequence (20 experiments, 3 scans) with a 90° pulse width of 3.5 µs. The temperature was controlled with a Stelar VTC‐91 heater airflow. Additional points in the 0.01–10 MHz frequency range were collected on a Fast‐Field Cycling (FFC) Stelar SmarTracer Relaxometer. T 1 values at 500 MHz were collected on a Bruker Avance III NMR spectrometer operating at 11.7 T. The concentration of Gd^3+ in the solutions was determined by using bulk magnetic susceptibility (BMS) shift measurements performed at 11.7 T. For the measurements in the biological fluid, lyophilized plasma matrix (Siemens Healthcare) was added to 1 mL of [Gd(ent‐L2)] (1.0 mM) or Seronorm (Sero) was solubilized in 5 mL [Gd(ent‐L2)] (1.0 mM) solution. ^1H NMRD of the final solution was measured at 310 K.
The spectra were acquired on a Bruker Avance III spectrometer (11.7 T) using a 5 mm probe under temperature control. An aqueous solution of the complexes ([GdL] = 10–15 mM) was enriched to ca. 2.0% of the ^17O isotope (Cambridge Isotope). The transverse relaxation rates (R 2) were measured as a function of temperature in the 278−350 K range. The simultaneous fit of ^1H NMRD and ^17O NMR profiles data was performed using the Micromath Scientist software (version 2.0, Salt Lake City, UT, USA).

[2] = 0.1 M Me4NCl, 25 °C; cited from earlier work
[3] = Stability and protonation constants of Zn(II)-complexes (pH-potentiometry); type: physicochemical; conditions: 0.15 M NaCl, 25 °C
Description: The protonation constants of ligands, the stability and protonation constants of Ca(II)‐ and Zn(II)‐complexes formed with rac‐L1, ent‐L1, rac‐L2, and ent‐L2 ligands were determined by pH‐potentiometric titration. The metal‐to‐ligand concentration ratio was 1:1 (the concentration of the ligand was generally 0.002 M). The protonation constants of the Cu(II)‐ and Gd(III)‐complexes were determined using pH‐potentiometry by titrating the pre‐prepared complexes from pH 2.0 to 12.0 with 0.2 M NaOH. The stability constants of the Gd(III)‐complexes with rac‐L1 and ent‐L1 ligands were determined by the “out‐of‐cell” technique because of their slow formation reaction. The pH range of the complexation equilibria and the time needed to reach the equilibria were determined by relaxometry. Eight–eight Gd(III) – rac‐L1 and Gd(III) – ent‐L1 samples were prepared, with pH values in the range of 1.7–3.0 at equilibrium ([Gd^3+] = [L] = 0.002 M). The samples were kept at 25 °C for 6 weeks to reach equilibrium. For the calculation of the stability constants of the [Gd(rac‐L1)]^3− and [Gd(ent‐L1)]^3− complexes, besides the protonation constants of ligands and the Gd(III) complexes, the stability constants of the di‐protonated [^*Gd(H2 rac‐L1)]^− and [^*Gd(H2 […])]^− out‐of‐cage complexes (considered as intermediates) was also used as fixed values, which were calculated from the pH‐potentiometric titration curve of the Gd(III) – rac‐L1 and Gd(III) – ent‐L1 system obtained in the pH range of 1.7–7.0.
For the pH measurements and titrations, the Metrohm 888 Titrando titration workstation Metrohm‐6.0234.110 combined electrode was used. Equilibrium measurements were carried out at a constant ionic strength (0.15 M NaCl) in 6 mL samples at 25 °C. The solutions were stirred, and N2 was bubbled through them. The titrations were made in the pH range 1.7–12.0. KH‐Phthalate (pH 4.005) and borax (pH 9.177) buffers were used to calibrate the pH meter. For the calculation of [H^+] from the measured pH values, the method proposed by Irving et al. was used as follows.^[ [46] ^] A 0.01M HCl solution was titrated with standardized NaOH solution at 0.15 M NaCl ionic strength. The differences (A) between the measured (pHread) and calculated pH (‐log[H^+]) values were used to obtain the equilibrium H^+ concentration from the pH values measured in the titration experiments (A = 0.02). For the equilibrium calculations, the stoichiometric water ionic product (pK w) was also needed in order to calculate [OH^−] values under basic conditions. The VNaOH – pHread data pairs of the HCl – NaOH titration obtained in the pH range 10.5–12.0 were used to calculate the pK w value (pK w = 13.83).
The stability and protonation constants of Ca(II)-, Zn(II)-, Cu(II)- and Gd(III)-complexes of rac-L1, ent-L1, rac-L2 and ent-L2, defined by Equations (S2) and (S3), were investigated by pH-potentiometry, spectrophotometry and ^1H NMR relaxometry at 25 °C in 0.15 M NaCl solution.
where i=0, 1, 2,…5. The KML and KMHiL values characterizing the formation of Ca(II)-, Zn(II)-, Cu(II)- and Gd(III)-complexes with rac-L1, ent-L1, rac-L2 and ent-L2 ligands have been calculated from the pH-potentiometric titration data obtained at 1:1 metal to ligand concentration ratios. In calculating the equilibrium constants, the best fitting of the mL NaOH – pH data has been obtained by assuming the formation of ML, MHL, MH2L, MH3L, MH4L, MH5L and MLH-1 species. The formation of the deprotonated [GdLH-1]^- complexes with rac-L2 and ent-L2 ligands takes place at pH>9.0, as indicated by the base consumption in the titration curves. This deprotonation of the Gd(III)-complexes occurs on the inner-sphere water molecule.

[4] = Relaxivity (NMRD) in saline solution, human plasma and Seronorm at 310 K; type: physicochemical
Description: as §1

| Compound | ^298K r 1 [1.5 T] [1] [mM⁻¹ s⁻¹] | r 1 ^310K [1.5 T] [1] [mM⁻¹ s⁻¹] | τ R ([1]; Table 2) [ps] | τ R ([1]; Table S20, 298 K) [ps] | ER [1] | q [1] | τ M1 [1] [ns] | τ M2 [1] [ns] | ^SS q [1] | logK ZnL [3] | logKZnH2L [3] | logKZnH3L [3] | logKZnH4L [3] | logKZnHL [3] | other results |
| --- | --- | --- | --- | --- | --- | --- | --- | --- | --- | --- | --- | --- | --- | --- | --- |
| O=C([O-])CCC(C(=O)[O-])N1CCN(C(CCC(=O)[O-])C(=O)[O-])Cc2cccc(n2)CN(C(CCC(=O)[O-])C(=O)[O-])CC1.[Gd+3] (racemic) [[Gd(ent‐L1)]^3−] | 10.9 | 8.6 | 96 ± 3 | 96±3 | 22^b) kJ mol^-1 | 2 | 144 ± 4 | 58 ± 5 | 2.5 ± 0.1 |  |  |  |  |  | r 1 difference between [Gd(rac-L1)]3− and [Gd(ent-L1)]3− [1]: 18%; q ([1]; listed as [Gd(ent-L1)]^3-): 2^b); ^SS q ([1]; listed as [Gd(ent‐L1)]^3⁻): 2.5 |
| O=C(O)CCC(C(=O)O)N1CCN(C(CCC(=O)O)C(=O)O)Cc2cccc(n2)CN(C(CCC(=O)O)C(=O)O)CC1 (racemic) [rac‐L1, 2,2’,2’’-[3,6,9,15-tetraazabicyclo[9.3.1]pentadeca-1(15),11,13-triene-3,6,9-triyl]tripentanedioic acid] |  |  |  |  |  |  |  |  |  | 19.54(2) | 5.01 (2) | 3.91 (3) | 3.88 (3) | 5.24 (4) | logK1^H [2]: 10.85; logK2^H [2]: 6.86; logK3^H [2]: 5.37; logK4^H [2]: 4.77; logK5^H [2]: 4.24; logK6^H [2]: 3.4; logK7^H [2]: 1.92; ΣlogKi^H [2]: 37.50 |
| O=C(CCC(C(=O)O)N1CCN(C(CCC(=O)NCC(O)CO)C(=O)O)Cc2cccc(n2)CN(C(CCC(=O)NCC(O)CO)C(=O)O)CC1)NCC(O)CO (racemic) [rac‐L2] |  |  |  |  |  |  |  |  |  | 18.66 (3) |  |  |  | 3.77 (3) |  |
| O=C(CCC(C(=O)[O-])N1CCN(C(CCC(=O)NCC(O)CO)C(=O)[O-])Cc2cccc(n2)CN(C(CCC(=O)NCC(O)CO)C(=O)[O-])CC1)NCC(O)CO.[Gd+3] (stereo not drawn) [[Gd(ent‐L2)]] | 16.5 | 12.6 | 127 ± 4 | 127±4 | 22^b) kJ mol^-1 | 2 | 155 ± 3 | 77 ± 5 | 4.5 and 4.5 ± 0.2 |  |  |  |  |  | plasma protein binding [4]: lack of plasma protein binding; r1 ([4]; 0.47 T, human plasma, 310 K): 13.6 ± 0.1 mM⁻¹ s⁻¹; r1 ([4]; 0.47 T, saline solution, 310 K): 12.6 ± 0.1 mM⁻¹ s⁻¹; r1 ([4]; 1.41 T, human plasma, 310 K): 13.4 ± 0.2 mM⁻¹ s⁻¹; r1 ([4]; 1.41 T, saline solution, 310 K): 12.6 ± 0.1 mM⁻¹ s⁻¹; r1 ([4]; 3 T, human plasma, 310 K): 13.1 ± 0.2 mM⁻¹ s⁻¹; r1 ([4]; 3 T, saline solution, 310 K): 12.4 ± 0.1 mM⁻¹ s⁻¹; r 1 relative to that of [Gd(BT-DO3A)] (Gadovist) ([4]; 37 °C and 3 T): more than two times higher; change in relaxivity (NMRD profile) in human plasma and in Seronorm ([4]; 310 K, vs water): negligible changes in relaxivity; r 1 higher than [Gd(PCTA)] [1]: 175%; r 1 increase compared to [Gd(DOTA)]− [1]: 309%; relaxivity, times higher than that of currently used GBCAs [1]: 2 to 3 times; q ([1]; listed as [Gd(ent-L2)]): 2^b |
| O=C(O)CCC(C(=O)O)N1CCN(C(CCC(=O)O)C(=O)O)Cc2cccc(n2)CN(C(CCC(=O)O)C(=O)O)CC1 (stereo not drawn) [ent‐L1] |  |  |  |  |  |  |  |  |  | 20.77 (2) | 4.76 (2) | 4.18 (2) | 3.29 (2) | 5.26 (2) |  |
| O=C(CCC(C(=O)O)N1CCN(C(CCC(=O)NCC(O)CO)C(=O)O)Cc2cccc(n2)CN(C(CCC(=O)NCC(O)CO)C(=O)O)CC1)NCC(O)CO (stereo not drawn) [ent‐L2] |  |  |  |  |  |  |  |  |  | 20.13 (3) |  |  |  | 3.27 (3) |  |
